Laboratory results reported in ChEMBL document CHEMBL2331441, “Phosphodiesterase inhibitors. Part 5: hybrid PDE3/4 inhibitors as dual bronchorelaxant/anti-inflammatory agents for inhaled administration” (Bioorg Med Chem Lett, 2013).

Legend:
[1] = biological target: cGMP-inhibited 3',5'-cyclic phosphodiesterase 3A (Homo sapiens, UniProt Q14432); experiment: Inhibition of PDE3A (unknown origin) by radiochemical assay
Cavia porcellus = experiment: Bronchodilatory activity in guinea pig assessed as inhibition of histamine-induced bronchoconstriction at 0.1 mg/kg, iv; assay type: functional
[2] = biological target: T1, 3',5'-cyclic-AMP phosphodiesterase 4B (Homo sapiens, UniProt Q07343); experiment: Inhibition of PDE4B (unknown origin) by radiochemical assay
T1 sequence (Q07343 whole entry): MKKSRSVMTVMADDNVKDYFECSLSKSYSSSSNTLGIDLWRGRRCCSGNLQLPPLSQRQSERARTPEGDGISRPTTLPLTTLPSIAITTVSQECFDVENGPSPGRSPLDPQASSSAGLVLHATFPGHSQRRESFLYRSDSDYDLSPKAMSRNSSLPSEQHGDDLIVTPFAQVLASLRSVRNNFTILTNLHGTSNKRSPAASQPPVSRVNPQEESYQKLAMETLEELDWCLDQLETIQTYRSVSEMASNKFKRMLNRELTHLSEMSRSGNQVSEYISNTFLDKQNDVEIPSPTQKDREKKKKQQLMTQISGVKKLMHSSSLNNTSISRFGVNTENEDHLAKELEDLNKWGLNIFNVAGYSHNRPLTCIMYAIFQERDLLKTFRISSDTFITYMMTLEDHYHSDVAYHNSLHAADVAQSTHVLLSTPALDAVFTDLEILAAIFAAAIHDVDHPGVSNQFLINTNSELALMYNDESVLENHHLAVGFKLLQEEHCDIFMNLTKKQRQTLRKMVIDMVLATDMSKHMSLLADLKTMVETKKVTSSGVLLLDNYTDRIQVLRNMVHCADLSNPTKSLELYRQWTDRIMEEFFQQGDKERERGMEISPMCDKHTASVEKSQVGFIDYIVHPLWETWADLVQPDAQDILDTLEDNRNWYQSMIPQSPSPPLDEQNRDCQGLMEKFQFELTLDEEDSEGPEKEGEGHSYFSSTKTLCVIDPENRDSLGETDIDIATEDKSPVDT

[3] = biological target: T1, 3',5'-cyclic-AMP phosphodiesterase 4B; experiment: Ratio of IC50 for KCA-1450 to compound IC50 for PDE4B (unknown origin) by radiochemical assay
Homo sapiens = organism: Homo sapiens; experiment: Selectivity ratio of IC50 for PDE3A (unknown origin) to IC50 for PDE4B (unknown origin)
Rattus norvegicus = experiment: Inhibition of LPS-induced leukocyte influx into rat lung at 100 ug/kg administered intratracheally 3 hrs prior LPS challenge; assay type: functional; settings: inhaled or nasal

Chain of cGMP-inhibited 3',5'-cyclic phosphodiesterase 3A (Q14432 whole entry): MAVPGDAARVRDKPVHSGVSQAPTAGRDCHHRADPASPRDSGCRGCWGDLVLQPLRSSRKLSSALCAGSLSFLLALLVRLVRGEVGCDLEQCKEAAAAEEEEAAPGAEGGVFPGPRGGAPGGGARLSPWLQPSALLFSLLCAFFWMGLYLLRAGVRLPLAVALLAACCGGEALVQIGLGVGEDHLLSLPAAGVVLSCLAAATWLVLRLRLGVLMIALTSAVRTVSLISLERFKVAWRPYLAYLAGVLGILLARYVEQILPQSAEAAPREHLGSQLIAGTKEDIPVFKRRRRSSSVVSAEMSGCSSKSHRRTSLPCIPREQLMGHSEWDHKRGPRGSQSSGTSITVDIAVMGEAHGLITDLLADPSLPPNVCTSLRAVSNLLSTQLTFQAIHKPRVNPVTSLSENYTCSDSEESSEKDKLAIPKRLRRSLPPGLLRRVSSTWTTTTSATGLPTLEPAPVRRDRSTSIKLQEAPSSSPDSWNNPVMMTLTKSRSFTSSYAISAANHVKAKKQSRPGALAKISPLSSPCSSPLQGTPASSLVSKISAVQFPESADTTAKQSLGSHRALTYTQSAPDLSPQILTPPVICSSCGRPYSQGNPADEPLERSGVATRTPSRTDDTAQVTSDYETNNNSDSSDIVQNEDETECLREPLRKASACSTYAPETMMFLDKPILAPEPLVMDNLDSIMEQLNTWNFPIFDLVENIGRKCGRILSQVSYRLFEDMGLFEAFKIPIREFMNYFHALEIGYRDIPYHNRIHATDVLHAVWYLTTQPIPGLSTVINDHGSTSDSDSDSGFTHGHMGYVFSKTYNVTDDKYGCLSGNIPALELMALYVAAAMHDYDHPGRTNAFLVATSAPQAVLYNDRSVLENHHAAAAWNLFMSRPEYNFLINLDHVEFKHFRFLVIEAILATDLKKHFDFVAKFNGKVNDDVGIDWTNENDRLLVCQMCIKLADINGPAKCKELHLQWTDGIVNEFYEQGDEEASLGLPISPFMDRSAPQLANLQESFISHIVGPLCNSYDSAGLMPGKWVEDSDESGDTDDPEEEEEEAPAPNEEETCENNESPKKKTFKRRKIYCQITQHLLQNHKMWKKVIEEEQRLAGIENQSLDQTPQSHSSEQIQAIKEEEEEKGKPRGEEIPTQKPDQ

## CCc1cc2c(C3=NN(CCCCOc4ccc(C5=NNC(=O)CC5C)cc4)C(=O)CC3C)ccc(OC)n2n1 (stereo not given)
[1]
  IC50: 1.2 nM
Cavia porcellus
  inhibition in vivo at 0.1 mg/kg: 96%
[2]
  IC50: 1.7 nM

## COc1ccc(C2=NNC(=O)C[C@@H]2C)c2cc(C(F)(F)F)nn12
[1]
  IC50: 360 nM
[2]
  IC50: 42 nM

## COc1ccc(C2=NN(CCOc3ccc(C4=NNC(=O)CC4C)cc3)C(=O)CC2C)c2cc(C(F)(F)F)nn12 (stereo not given)
[1]
  IC50: 130 nM
[3]
  Ratio IC50: 23
[2]
  IC50: 0.66 nM

## CCc1cc2c(C3=NN(CCCCOc4ccc(C5=NNC(=O)CC5C)cc4)C(=O)C3(C)C)ccc(OC)n2n1 (stereo not given)
[1]
  IC50: 1.7 nM
Cavia porcellus
  inhibition in vivo at 0.1 mg/kg: 92%
[2]
  IC50: 0.6 nM

## COc1ccc(C2=NN(CCCCOc3cccc(C4=NNC(=O)C4(C)C)c3)C(=O)CC2C)c2cc(C(F)(F)F)nn12 (stereo not given)
[1]
  IC50: 1730 nM
Homo sapiens
  Ratio IC50: 10000
[2]
  IC50: 0.064 nM

## COc1ccc(C2=NN(CCCCOc3ccc(C4=NNC(=O)CC4)c(F)c3F)C(=O)C2(C)C)n2cc(C(F)(F)F)nc12
[1]
  IC50: 5 nM
Cavia porcellus
  inhibition in vivo at 0.1 mg/kg: 87%
[2]
  IC50: 6.7 nM
Rattus norvegicus
  inhibition in vivo at 0.1 mg/kg: 56%

## COc1ccc(C2=NN(CCCCOc3ccc(C4=NNC(=O)C4(C)C)c(F)c3F)C(=O)C2(C)C)c2sc(C(F)(F)F)nc12
[1]
  IC50: 63 nM
Cavia porcellus
  inhibition in vivo at 0.1 mg/kg: 36%
[2]
  IC50: 0.38 nM

## COc1ccc(C2=NNC(=O)CC2C)c2cc(C(F)(F)F)nn12 (racemic)
[1]
  IC50: 2380 nM
[2]
  IC50: 70 nM

## COc1ccc(C2=NN(CCCCOc3ccc(C4=NNC(=O)C4(C)C)cc3F)C(=O)CC2C)c2cc(C(F)(F)F)nn12 (stereo not given)
[1]
  IC50: 1520 nM
[2]
  IC50: 1.4 nM

## COc1ccc(C2=NN(CCCCOc3ccc(C4=NNC(=O)CC4)cc3)C(=O)CC2C)c2cc(C(F)(F)F)nn12 (stereo not given)
[1]
  IC50: 360 nM
[2]
  IC50: 0.1 nM

## COc1ccc(C2=NN(CCCCOc3ccc(-c4n[nH]c(=O)cc4C)cc3)C(=O)CC2C)c2cc(C(F)(F)F)nn12 (stereo not given)
[1]
  IC50: 40000 nM
[2]
  IC50: 6 nM

## COc1ccc(C2=NN(CCCCOc3ccc(-c4ccc(=O)[nH]n4)cc3)C(=O)CC2C)c2cc(C(F)(F)F)nn12 (stereo not given)
[1]
  IC50: 38000 nM
[2]
  IC50: 20 nM

## CCc1cc2c(C3=NN(CCCOc4ccc(C5=NNC(=O)CC5C)cc4)C(=O)CC3C)ccc(OC)n2n1 (stereo not given)
[1]
  IC50: 11 nM
[2]
  IC50: 5.9 nM

## COc1ccc(C2=NN(CCCCOc3ccc(C4=NNC(=O)C4(C)C)c(F)c3F)C(=O)CC2C)c2cc(C(F)(F)F)nn12 (stereo not given)
[1]
  IC50: 15 nM
[2]
  IC50: 3.1 nM

## COc1ccc(C2=NN(CCCCOc3ccc(C4=NNC(=O)CC4)c(F)c3F)C(=O)C2(C)C)c2sc(C(F)(F)F)nc12
[1]
  IC50: 6.9 nM
Cavia porcellus
  inhibition in vivo at 0.1 mg/kg: 96%
[2]
  IC50: 0.77 nM
Rattus norvegicus
  inhibition in vivo at 0.1 mg/kg: 51%

## COc1ccc(C2=NN(CCCCOc3ccc(C4=NNC(=O)C4(C)C)c(F)c3F)C(=O)C2(C)C)n2cc(C(F)(F)F)nc12
[1]
  IC50: 40 nM
Cavia porcellus
  inhibition in vivo at 0.1 mg/kg: 76%
[2]
  IC50: 3.2 nM

## COc1ccc(C2=NN(CCCOc3ccc(C4=NNC(=O)CC4C)cc3)C(=O)CC2C)c2cc(C(F)(F)F)nn12 (stereo not given)
[1]
  IC50: 140 nM
[3]
  Ratio IC50: 23
[2]
  IC50: 3 nM

## COc1ccc(C2=NN(CCCCOc3cccc(C4=NNC(=O)CC4C)c3)C(=O)CC2C)c2cc(C(F)(F)F)nn12 (stereo not given)
[1]
  IC50: 590 nM
[2]
  IC50: 0.5 nM

## CCc1cc2c(-c3ccc(=O)n(CCCCOc4ccc(C5=NNC(=O)CC5C)cc4)n3)ccc(OC)n2n1 (stereo not given)
[1]
  IC50: 2.7 nM
Cavia porcellus
  inhibition in vivo at 0.1 mg/kg: 71%
[2]
  IC50: 20 nM

## COc1ccc(C2=NN(CCCCOc3ccc(C4=NNC(=O)C4(C)C)cc3)C(=O)CC2C)c2cc(C(F)(F)F)nn12 (stereo not given)
[1]
  IC50: 270 nM
[2]
  IC50: 0.5 nM

## CCc1cc2c(C3=NN(CCCCOc4ccc(C5=NNC(=O)CC5C)cc4)C(=O)CC3)ccc(OC)n2n1 (stereo not given)
[1]
  IC50: 0.27 nM
Cavia porcellus
  inhibition in vivo at 0.1 mg/kg: 28%
[2]
  IC50: 2.7 nM

## COc1ccc(C2=NN(CCCCOc3ccc(C4=NNC(=O)C4(C)C)c(F)c3)C(=O)CC2C)c2cc(C(F)(F)F)nn12 (stereo not given)
[1]
  IC50: 58 nM
[2]
  IC50: 0.3 nM

## COc1ccc(C2=NN(CCCCCOc3ccc(C4=NNC(=O)CC4C)cc3)C(=O)CC2C)c2cc(C(F)(F)F)nn12 (stereo not given)
[1]
  IC50: 72 nM
[3]
  Ratio IC50: 23
[2]
  IC50: 0.2 nM

## COc1ccc(C2=NN(CCCCOc3ccc(C4=NNC(=O)CC4)c(F)c3F)C(=O)CC2C)c2cc(C(F)(F)F)nn12 (stereo not given)
[1]
  IC50: 5.1 nM
[2]
  IC50: 2.2 nM

## COc1ccc(C2=NN(CCCCOc3ccc(C4=NNC(=O)CC4C)cc3)C(=O)CC2C)c2cc(C(F)(F)F)nn12 (stereo not given)
[1]
  IC50: 15 nM
[3]
  Ratio IC50: 23
[2]
  IC50: 0.3 nM
